pIC50: −log10 of the molar value.
How the values were obtained:
PD-1/PD-L1 binding = biological target: T1, PD-1/PD-L1 binding (Homo sapiens, UniProt Q9NZQ7); assay: HTRF inhibition of PD-1/PD-L1 binding in vitro; settings: His-PD-1 100 nM, PD-L1-Fc 2 nM, read-out: IC50 inhibiting PD-1/PD-L1 binding in vitro
T1 construct: purchased Sino Biological Inc. 10084-H02H-100 (PD-L1-Fc); 10377-H08H-50 (His-PD-1)
Text: Homogeneous Time-Resolved Fluorescence (HTRF): This method used the recombinant human PD-L1 protein fused to express the hFc tag and the recombinant human PD-1 protein fused to express the His tag, both of which were interacting ligands and receptors. When the anti-hFc antibody containing Eu element chelation marker and the anti-His antibody labeled with XL665 fluorescein were bound with the above two corresponding labels, and excited by a laser with a wavelength of 320 nm, the ligand-receptor binding enabled the energy to be transferred from the Eu element to the XL665 fluorescein, which was excited to emit light at a wavelength of 665 nm. However, when an inhibitor of the interaction between PD-L1 and PD-1 was added, the binding of the ligand to the receptor was destroyed, so that the distance between Eu and XL665 was far away, the energy cannot be transferred, and XL665 would not be excited.
(§1) Recombinant human PD-1 protein with His tag (His-PD-1 protein, Cat #: 10377-H08H-50), and recombinant human PD-L1-Fc fusion protein (PD-L1-Fc fusion protein, Cat #: 10084-H02H-100) were purchased from Sino Biological Inc., anti-hFc-Eu^+ antibody and anti-His-XL665 antibody were purchased from Cisbio Company, and other related reagents such as dilution buffer (Diluent buffer 5, Cat #: 62DL5DDC), detection buffer (PPI-Europium detection buffer, Cat #: 61DB9RDF) were purchased from Cisbio Company. Fluorescence detection instrument Tecan (Spark 10 M) was purchased from Switzerland Tecan Company.
(§2) (1) Experimental preparation: The test compound was diluted with dilution buffer into different concentration gradients (the highest final concentration in 20 μL final reaction system was 10 μM), His-PD-1 protein was diluted to 800 nM (the final concentration in 20 μL final reaction system was 100 nM), and the PD-L1-Fc fusion protein was diluted to 16 nM (final concentration was 2 nM). The anti-His-XL665 antibody and anti-hFc-Eu^3+ antibody were respectively diluted 20 times and 100 times using the detection buffer according to the reagent requirements.
(§3) (2) 5 μL of test compound, 2.5 μL of PD-L1-Fc fusion protein and 2.5 μL of His-PD-1 protein solution were mixed, and incubated at room temperature for 15 min. Then the system was added with 5 μL of anti-His-XL665 antibody and 5 μL of anti-hFc-Eu^3+ antibody, incubated for another 3 h, and then detected.
(3) When detecting the reaction, a control group was also provided, including a 0% inhibition positive control without adding test compounds and a 100% inhibition negative control without adding PD-1 protein. All detections were performed with duplicates.
(§4) (4) The fluorescence signal of each well was measured using a fluorescence detector Tecan (Spark 10M) at an excitation wavelength of 320 nm, and emission wavelengths of 620 nm and 665 nm, respectively. The intensity of the mutual binding of PD-1 and PD-L1 referred to the ratio of fluorescence signals Em665/Em620.
(§5) (5) The binding inhibition rate of the test compound was calculated as follows: Inhibition rate (%)=[1−(Fluorescence signal ratio of detection well-fluorescence signal ratio of 100% inhibition negative control)]/(fluorescence signal ratio of 0% inhibition positive control-fluorescence signal ratio of 100% inhibition negative control)×100%. After calculating the inhibition rate on PD-1/PD-L1 binding of the test compounds with different concentration gradients, the 50% inhibitory concentration (IC50) was calculated.

CD80/PD-L1 binding = biological target: T2, CD80/PD-L1 binding (Homo sapiens, UniProt Q9NZQ7); assay: HTRF inhibition of CD80/PD-L1 binding in vitro; settings: His-CD80 100 nM, PD-L1-Fc 2 nM, read-out: IC50 inhibiting CD80/PD-L1 binding in vitro
T2 construct: purchased Sino Biological Inc. 10084-H02H-100 (PD-L1-Fc); 10698-H08H-100 (His-CD80)
Text: In addition to PD-1, PD-L1 can also exert immunosuppressive activity by binding to CD80. Similarly, in vitro experiments of binding or binding inhibition of CD80 and PD-L1 can also be measured by homogeneous time-resolved fluorescence (HTRF). When the anti-hFc-Eu^3+ antibody and anti-His-XL665 antibody were bound to the hFC tag fused to PD-L1 and the His tag fused to CD80 respectively, and excited with a 320 nm wavelength laser, the binding of PD-L1 and CD80 enabled energy to be transferred from the Eu element to the XL665 fluorescein, which was excited to emit light. When the inhibitor of the interaction between PD-L1 and CD80 was added, the combination of the two was destroyed, so that the distance between Eu and XL665 was far away, the energy cannot be transferred, and XL665 would not be excited.
as §1, with “CD80” for “PD-1”, “(His-CD80” for “(His-PD-1”, “10698-H08H-100),” for “10377-H08H-50),”, “anti-hFc-Eu^3+” for “anti-hFc-Eu^+”
as §2, with “His-CD80” for “His-PD-1”
as §3, with “Hid-CD80” for “PD-L1-Fc fusion”, “[…]” for “His-PD-1”
(3) When detecting the reaction, a control group was provided, including a 0% inhibition positive control without adding test compounds and a 100% inhibition negative control without adding CD-80 protein. All detections were performed with duplicates.
as §4, with “CD80” for “PD-1”
as §5, with “CD80/PD-L1” for “PD-1/PD-L1”

T2 sequence (Q9NZQ7 19-239 limits assumed): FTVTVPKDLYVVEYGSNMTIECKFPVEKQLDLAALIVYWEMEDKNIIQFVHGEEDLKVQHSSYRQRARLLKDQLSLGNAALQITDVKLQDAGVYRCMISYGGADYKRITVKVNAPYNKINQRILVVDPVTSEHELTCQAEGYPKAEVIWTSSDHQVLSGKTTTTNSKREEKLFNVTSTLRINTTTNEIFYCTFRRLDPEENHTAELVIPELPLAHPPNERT
T1 sequence (Q9NZQ7 19-239 limits assumed): as above

What does the source list for `[2H]C([2H])([2H])n1c(C(=O)Nc2cccc(-c3cccc(NC(=O)c4nc5c(n4C([2H])([2H])[2H])CCN(CCC46CCC(C(=O)O)(CC4)C6)C5)c3Cl)c2F)nc2c1CCN(CCC13CCC(COC)(CC1)C3)C2` (single isomer, unassigned) [Compound I-8, 4-(2-(2-((2-chloro-2′-fluoro-3′-(5-(2-(4-(methoxymethyl)bicyclo[2.2.1]heptane-1-yl)ethyl)-1-(methyl-d3)-4,5,6,7-tetrahydro-1H-imidazo[4,5-c]pyridine-2-carboxamido)-[1,1′-biphenyl]-3-yl)carbamoyl)-1-(methyl-d3)-1,4,6,7-tetrahydro-5H-imidazo[4,5-c]pyridin-5-yl)ethyl)bicyclo[2.2.1]heptane-1-carboxylic acid]?
pIC50 (PD-1/PD-L1 binding): 8.79; pIC50 (CD80/PD-L1 binding): 8.75
